# Reference: US7648966B2, “Mannose-6-phosphonate compounds for the treatment of inflammatory diseases” (Pharmaxis Pty Limited, priority 2003, dated 2010)
# Tests used:
# [1] = system: MBP-specific T lymphocyte cell lines migrating across rat brain endothelial cell monolayer; test: Inhibition of T-lymphocyte migration across rat brain endothelial cell layer (Transwell, 51Cr-labeled cells); type: cell-based, Lewis rats; settings: 6 hours
# Description: Preparation of Brain Endothelial Cells (ECs)
# Vascular ECs were isolated from rat brain capillaries of 6 to 8 week old Lewis rats according to the method of Risau, W et al., 1990, J. Cell Biol. 110:1757-1766 (which is incorporated herein by reference). Colonies of ECs were purified from astroglial cells and pericytes using anti-Thy1.1-antibody and complement-mediated lysis to remove unwanted Thy1.1+ cells.
# The EC colonies were grown, using conventional methods, in Dulbecco's Modified Eagle's Medium (DMEM)-high glucose, supplemented, with 20% fetal calf serum (FCS), glutamine, pyruvate, nonessential amino acids, HEPES buffer and antibiotics (kanamycin, amphotericin), and heparin (all from GIBCO). Cultures were supplemented with 150 μg/ml “endothelial growth supplement” from Collaborative Biomedical Products. Upon reaching confluence, EC cultures were washed with 0.2% EDTA in phosphate buffered saline (PBS), trypsinized (Trypsin-EDTA, 0.1% final concentration), washed and re-treated with anti-Thy1.1 antibody for 40 min, washed and incubated with complement sufficient to lyse all Thy1.1+ cells (Behringwerke, AG, Marburg, Germany) at room temperature.
# ECs were then plated on Matrigel®-coated 6.5 mm Transwells, […] (Corning Costar Corporation, Cambridge, Mass.). Presence of ECs and confluence of the monolayer were checked by measuring the electrical resistance (World Precision Instruments, New Haven, U.S.A., model EVOM-G) and by staining with FITC-labeled phalloidin (Sigma).
# Myelin Basic Protein (MBP)-Specific T Cell Lines
# To study the effect of agents of the present invention on T lymphocyte migration, MBP-specific T lymphocyte cell lines were generated according to the method of Ben-Nun et al., Europ. J. Immunol. 11:195-199 (1981); incorporated herein by reference) starting with lymphocytes from the LNs of Lewis rats that had been immunized with MBP in complete Freund's adjuvant (CFA). These cells were used for migration studies during the first 4 days of their propagation in IL-2-containing medium, following MBP restimulation in the presence of antigen-presenting cells (irradiated spleen or thymus cells from normal Lewis rats).
# These stimulated T lymphocytes were radiolabeled with ^51Cr (Na^51Cr04, 37 MBq/ml, Amersham, UK) for 30 minutes at 37° C. with occasional agitation, they were then washed three times with DMEM and placed into the upper chamber of the Transwells at 5×10^5 cells in 100 μl of “migration medium.” Test and control substance were included in the upper wells at final concentrations of 0.1, 1 and 10 mM. Cell migration was assessed visually by light microscopy to gauge progress of the experiment. The experiment was terminated after 6 hours, whereupon the undersurface of the membrane filters were rinsed twice with 100 μl of ice-cold PBS-0.2% EDTA and combined with the medium of the lower chamber of the well. The combined material was counted for radioactivity in a gamma counter (Packard Auto-Gamma 5650 (Downer's Grove Ill., USA) gamma counter. Each “treatment” group was run in triplicate (test agent, control agent (glucose 6-phosphate) and no treatment).
# Inhibition values are in comparison with the negative control.
# [2] = system: 51Cr-labeled T lymphocyte migration into the spleen; test: Inhibition of lymphocyte migration into lymphoid tissue (spleen) in vivo; parameters: species or system Balb/c mice; settings: 5 mg per mouse iv with labeled cells; spleens removed 1.5 hours after injection; vs negative controls
# Description: Lymphocytes were obtained from spleens of 6-8 week old female specific pathogen-free Balb/c mice (19-21 g). Single cell suspensions prepared by conventional means (pushing through a stainless steel screen). Red blood cells were lysed by treating with a solution of bicarbonate buffered ammonium chloride-EDTA (pH 7.3) and the preparation strained through a Falcon 2350 cell strainer. All cell preparative steps were performed on ice. Cell were suspended in a conventional lymphocyte culture medium (DMEM plus glucose, folic acid, L-asparagine, sodium bicarbonate, L-glutamine, sodium pyruvate, HEPES, 2-mercaptoethanol, penicillin, streptomycin, neomycin, and 2% FCS).
# B lymphocytes were depleted by suspending the cells in purified rat anti-mouse CD45/B220 antibody (RA3-6B2 clone; PharMingen, USA) at a concentration of 4×10^7 cells/ml and incubated on ice for 20 minutes. An equal volume of culture medium (as above) was added and the cells centrifuged (200×g) and resuspended at a concentration of 10^7 cells/ml in BioMag goat ant-rat IgG (H&L) (“GARIG”) conjugated to magnetic beads (Bio Mag; Perseptive Diagnostics, Polysciences, Inc., USA). Following a 20 minute incubation on ice, with agitation every 5 minutes, cells binding to the GARIG/anti-CD45/B220 antibody complex were removed using magnetic separation (Dynal MPC-6, Dynal, USA). This procedure was repeated 4 times, resulting in a cell population containing approximately 80-90% T lymphocytes (determined by FACS analysis).
# The cells were then washed in Hanks balanced salt solution (HBSS), resuspended in 5 ml of HBSS, and radiolabeled with ^51Cr for 30 minutes at 37° C. (as described above). The labeled cells were washed in PBS, centrifuged (200×g), and a portion were resuspended at a concentration of 3×10^7 cells/ml in either PBS (negative control) or PBS containing phenyl mannoside 6-phosphate (25 mg/ml in PBS; positive control) or PBS containing the test compound (25 mg/ml), and stored on ice. Cell viability was confirmed throughout the procedures by trypan blue exclusion. Balb/c mice were injected intravenously (iv) into the lateral tail vein with 0.2 ml containing 6×10^6 labeled lymphocytes and 0.2 ml of either PBS (negative control), 5 mg positive control or 5 mg test compound. All groups of mice were weight matched (±0.5 g).
# Spleens from recipient mice were removed 1.5 hours after injection, and the cell-associated radioactivity was determined using a gamma counter (as above). Results of inhibition of lymphocyte migration into the spleen were expressed as a percentage reduction in the CPM of the spleens from treated animals compared with negative controls.
# The phosphono-mannoside compounds of the present invention and their relative inhibition of lymphocyte migration in vivo (compared to negative controls) are presented in Table 2.
# [3] = Tested for pharmaceutical effectiveness (test not specified)
# Description: In a similar manner to the foregoing procedure and using the appropriate reagents, the following compounds were prepared.
# [4] = 10 mM in upper well, compared with negative control
Compound,"% inhibition (±SEM) of T cell migration [1, 4]",% Inhibition of lymphocyte migration into spleens [2],pharmaceutical effectiveness as defined herein [3],"inhibition at 10000 µM ([1]; Rattus norvegicus, T-cell, 10 mM in upper well, compared with negative control, read-out: % inhibition (±SEM) of T cell migration)",migration value compared with no treatment ([1]; control agent)
"1-(2,4,6-trimethylphenyl)-6-phosphono-manoside",80 ± 4%,85.5%,–,–,–
"1-(2-methyl,4-chlorophenyl)-6-phosphono-mannoside",65 ± 4%,45.0%,–,–,–
"1-(2-methyl,4-fluorophenyl)-6-phosphonomannoside",53 ± 2%,68.0%,–,–,–
"1-(2-methyl,4-trifluoromethyl)-6-phosphonomannoside",88 ± 3%,87.3%,pharmaceutically effective,–,–
"O=C[C@H](O)[C@@H](O)[C@H](O)[C@H](O)COP(=O)(O)O [glucose-6-phosphate, reference compound]",–,–,–,0%,not statistically different from no treatment
"O=P(O)(O)OC[C@H]1OC(Oc2ccccc2)[C@@H](O)[C@@H](O)[C@@H]1O (stereo partly drawn) [positive control compound, phenyl mannoside 6-phosphate, reference compound]",–,70.5%,–,–,–
